Assay results: US20240287138A1, “CYCLIC PEPTIDES FOR INHIBITING TNF RECEPTOR 1 ACTIVITY” (Merck Sharp & Dohme LLC, priority 2023, published 2024)
Numbered stars: 1 amine (or outer) side, 2 acyl side, 3 side chain; on linkers, the order of the positions; unused ones are H or OH. Bridge positions count the residues as written; N and C are the ends. Square brackets hold non-standard residues; d marks the D form. Peptide text beside a SMILES is read from it. * marks the point of attachment. Trp(βS-Me,7-OMe) = COc1cccc2c([C@H](C)[C@H](N)C(=O)O)c[nH]c12; Achc(cis-1,4) = O=C([C@H]1CC[C@@H](N[*:1])CC1)[*:2]; Phe(4-CH2COOH) = N[C@@H](Cc1ccc(CC(=O)O)cc1)C(=O)O; Trp(7-CN) = N#Cc1cccc2c(C[C@H](N)C(=O)O)c[nH]c12; Trp(7-Cl) = N[C@@H](Cc1c[nH]c2c(Cl)cccc12)C(=O)O; Phe(3-CONH2) = NC(=O)c1cccc(C[C@H](N)C(=O)O)c1; Phe(4-CONH2) = NC(=O)c1ccc(C[C@H](N)C(=O)O)cc1; Phe(4-COOH) = N[C@@H](Cc1ccc(C(=O)O)cc1)C(=O)O; Trp(7-aza) = N[C@@H](Cc1c[nH]c2ncccc12)C(=O)O; Phe(4-CH2NH2) = NCc1ccc(C[C@H](N)C(=O)O)cc1; Pip(5R-OH) = O=C(O)[C@@H]1CC[C@@H](O)CN1; αMeW = C[C@](N)(Cc1c[nH]c2ccccc12)C(=O)O; X1 = O=C([C@@H]1CC[C@H](N[*:1])C1)[*:2]; Gly(Nα-CH2CH2CONH2) = NC(=O)CCNCC(=O)O; Isoxazole(3-carbonyl) = O=C(c1ccon1)*; Pip(4-aza) = O=C(O)[C@@H]1CNCCN1; 4Pal = N[C@@H](Cc1ccncc1)C(=O)O; NMeE = CN[C@@H](CCC(=O)O)C(=O)O; dHyp = O=C(O)[C@H]1C[C@H](O)CN1; Ahp(2) = CCCCC[C@H](N)C(=O)O; NMeDab = CN[C@@H](CCN)C(=O)O; αMeS = C[C@](N)(CO)C(=O)O; Carboxymethyl = O=C(O)C*; Nle = CCCC[C@H](N)C(=O)O; Dab = NCC[C@H](N)C(=O)O; Sar = CNCC(=O)O; X22 = C1CC1C*

Key:
[1] = target: T1, human soluble TNFR1 (sTNFR1) (Homo sapiens, UniProt P19438); assay: Human sTNFR1-peptide displacement assay (LanthaScreen Eu TR-FRET binding assay)
T1 construct: made in house; host or cells: Sf21 (baculovirus)
T1 sequence (P19438 with tags, fused parts or gaps): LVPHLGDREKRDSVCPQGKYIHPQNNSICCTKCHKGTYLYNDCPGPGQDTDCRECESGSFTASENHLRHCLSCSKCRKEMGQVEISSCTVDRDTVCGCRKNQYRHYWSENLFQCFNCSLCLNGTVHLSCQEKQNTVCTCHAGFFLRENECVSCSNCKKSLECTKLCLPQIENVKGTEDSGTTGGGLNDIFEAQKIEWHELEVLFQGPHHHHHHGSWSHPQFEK
Summary of the method: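 Readout is the 665/615 nm TR-FRET ratio (Eu anti-His donor, streptavidin-Alexa647 acceptor), normalized to DMSO and saturating displacer, fit by Morrison-based five-parameter logistic for Kd^app. His-tagged sTNFR1 (1-211) prebound to 100 nM biotinylated peptide SEQ ID NO.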

[2] = target: T2, human TNFR1 extracellular domain (ECD) protein (Homo sapiens, UniProt P19438); assay: SPR binding affinity to captured human TNFR1 ECD
T2 construct: HRV 3C protease cleavage site (C); 6His (C, cleaved yes); made in house; host or cells: Sf21 insect cells (baculovirus), secreted
T2 sequence (P19438 30-211): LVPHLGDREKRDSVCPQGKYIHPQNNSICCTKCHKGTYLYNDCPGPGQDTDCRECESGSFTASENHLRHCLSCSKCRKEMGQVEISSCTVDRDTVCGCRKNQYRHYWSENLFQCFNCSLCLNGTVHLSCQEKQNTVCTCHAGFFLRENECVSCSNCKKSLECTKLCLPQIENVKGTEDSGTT
Summary of the method: (§1)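 SPR kinetics: peptides over captured avi-biotinylated receptor ECDs, TNFR1 for affinity, TNFR2 run in parallel for off-target binding. Running buffer HEPES pH 7.4 with 150 mM NaCl, 3 mM EDTA, 0.05% P20, 2% DMSO; surface regenerated between analytes. Affinity derived from kon/koff.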

human TNFR2 ECD protein = target: T3, human TNFR2 ECD protein (Homo sapiens, UniProt P20333); assay: SPR off-target binding (selectivity) to human TNFR2 ECD
T3 construct: HRV 3C protease cleavage site (C); 6His (C, cleaved yes); made in house; host or cells: Sf21 insect cells (baculovirus), secreted
T3 sequence (P20333 23-257): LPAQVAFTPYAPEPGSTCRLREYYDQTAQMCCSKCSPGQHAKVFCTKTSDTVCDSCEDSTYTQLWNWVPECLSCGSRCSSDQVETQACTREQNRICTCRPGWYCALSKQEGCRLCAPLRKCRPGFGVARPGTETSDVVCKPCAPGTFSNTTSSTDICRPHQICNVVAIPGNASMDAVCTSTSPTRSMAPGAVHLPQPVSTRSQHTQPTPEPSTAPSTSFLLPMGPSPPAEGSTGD
Summary of the method: as §1

Structure (SMILES)	Kd [1] [nM]	Kd [2] [nM]	Kd (human TNFR2 ECD protein) [nM]	IC50 [1] [nM]
COc1cccc2c([C@H](C)[C@@H]3NC(=O)CN(C)C(=O)[C@H](Cc4ccc(C(=O)O)cc4)NC(=O)[C@H](Cc4ccc(C(N)=O)cc4)NC(=O)[C@](C)(CO)NC(=O)[C@H](Cc4c[nH]c5c(C#N)cccc45)NC(=O)[C@H](Cc4ccc(C(=O)O)cc4)NC(=O)[C@H](CC(N)=O)NC(=O)[C@H]4C[C@H](O)CN4C(=O)[C@H](Cc4c[nH]c5ncccc45)NC(=O)[C@@H]4CC[C@@H](O)CN4C(=O)[C@H](Cc4ccncc4)NC(=O)[C@H](COCC4CC4)NC(=O)[C@@H]4CC[C@@H](C4)NC3=O)c[nH]c12 [SEQ ID NO. 149] (cyclo([4Pal][Pip(5R-OH)][Trp(7-aza)][dHyp]N[Phe(4-COOH)][Trp(7-CN)][αMeS][Phe(4-CONH2)][Phe(4-COOH)][Sar][Trp(βS-Me,7-OMe)][X1]S(X22)))	0.21	0.18	> 1000	
CCCCC[C@@H]1NC(=O)[C@@H]2CC[C@@H](C2)NC(=O)[C@H]([C@@H](C)c2c[nH]c3c(OC)cccc23)NC(=O)CN(C)C(=O)[C@H](Cc2cccc(C(N)=O)c2)NC(=O)[C@H](Cc2ccc(C(N)=O)cc2)NC(=O)[C@](C)(CO)NC(=O)[C@H](Cc2c[nH]c3c(C#N)cccc23)NC(=O)[C@H](Cc2ccc(C(=O)O)cc2)NC(=O)[C@H](CC(N)=O)NC(=O)CN(CCC(N)=O)C(=O)[C@H](Cc2c[nH]c3ccccc23)NC(=O)[C@@H]2CNCCN2C(=O)[C@H](Cc2ccncc2)NC1=O [SEQ ID NO. 10] (cyclo([4Pal][Pip(4-aza)]W[Gly(Nα-CH2CH2CONH2)]N[Phe(4-COOH)][Trp(7-CN)][αMeS][Phe(4-CONH2)][Phe(3-CONH2)][Sar][Trp(βS-Me,7-OMe)][X1][Ahp(2)]))	0.1	0.08	> 1000	
CCCCC[C@@H]1NC(=O)[C@@H]2CC[C@@H](C2)NC(=O)[C@H]([C@@H](C)c2c[nH]c3c(OC)cccc23)NC(=O)CN(C)C(=O)[C@H](Cc2cccc(C(N)=O)c2)NC(=O)[C@H](Cc2ccc(C(N)=O)cc2)NC(=O)[C@](C)(CO)NC(=O)[C@H](Cc2c[nH]c3c(C#N)cccc23)NC(=O)[C@H](Cc2ccncc2)NC(=O)[C@H](CC(N)=O)NC(=O)[C@H]2C[C@H](O)CN2C(=O)[C@H](Cc2c[nH]c3ccccc23)NC(=O)[C@@H]2CNCCN2C(=O)[C@H](Cc2ccncc2)NC1=O [SEQ ID NO. 174] (cyclo([4Pal][Trp(7-CN)][αMeS][Phe(4-CONH2)][Phe(3-CONH2)][Sar][Trp(βS-Me,7-OMe)][X1][Ahp(2)][4Pal][Pip(4-aza)]W[dHyp]N))	0.06	0.01	> 1000	
CCCC[C@@H]1NC(=O)CSC[C@@H](C(N)=O)NC(=O)[C@](C)(Cc2c[nH]c3ccccc23)NC(=O)CN(C)C(=O)[C@H](Cc2ccc(O)cc2)NC(=O)[C@H](Cc2ccc(OCC(=O)O)cc2)NC(=O)[C@](C)(CO)NC(=O)[C@H](Cc2c[nH]c3c(Cl)cccc23)NC(=O)[C@H](Cc2ccncc2)NC(=O)[C@H](CC(N)=O)NC(=O)[C@H](CCC(=O)O)N(C)C(=O)[C@H](Cc2c[nH]c3ncccc23)NC(=O)[C@H](CO)NC(=O)[C@H](Cc2ccc(CN)cc2)NC1=O [SEQ ID NO. 283] ({CH2CO}-[Nle][Phe(4-CH2NH2)]S[Trp(7-aza)][NMeE]N[4Pal][Trp(7-Cl)][αMeS]Y(Carboxymethyl)Y[Sar][αMeW]C-NH2; thioether N-14)		0.5	> 1000	1.45
CCCC[C@@H]1NC(=O)CSC[C@@H](C(N)=O)NC(=O)[C@](C)(Cc2c[nH]c3ccccc23)NC(=O)CN(C)C(=O)[C@H](Cc2ccc(O)cc2)NC(=O)[C@H](Cc2ccc(C(=O)O)cc2)NC(=O)[C@](C)(CO)NC(=O)[C@H](Cc2c[nH]c3c(Cl)cccc23)NC(=O)[C@H](Cc2ccncc2)NC(=O)[C@H](CC(N)=O)NC(=O)[C@H](CCC(=O)O)N(C)C(=O)[C@H](Cc2c[nH]c3ncccc23)NC(=O)[C@H](CCN)N(C)C(=O)[C@H](Cc2ccncc2)NC1=O [SEQ ID NO. 231] ({CH2CO}-[Nle][4Pal][NMeDab][Trp(7-aza)][NMeE]N[4Pal][Trp(7-Cl)][αMeS][Phe(4-COOH)]Y[Sar][αMeW]C-NH2; thioether N-14)		1.9	> 1000	2.63
CCCC[C@@H]1NC(=O)[C@@H]2CC[C@@H](C2)NC(=O)[C@H]([C@@H](C)c2c[nH]c3c(OC)cccc23)NC(=O)CN(C)C(=O)[C@H](Cc2ccc(C(N)=O)cc2)NC(=O)[C@H](Cc2ccc(C(N)=O)cc2)NC(=O)[C@](C)(CO)NC(=O)[C@H](Cc2c[nH]c3c(Cl)cccc23)NC(=O)[C@H](Cc2ccncc2)NC(=O)[C@H](CC(N)=O)NC(=O)[C@H](CCC(=O)O)N(C)C(=O)[C@H](Cc2c[nH]c3ccccc23)NC(=O)[C@@H]2CC[C@@H](O)CN2C(=O)[C@H](Cc2ccncc2)NC1=O [SEQ ID NO. 229] (cyclo([4Pal][Trp(7-Cl)][αMeS][Phe(4-CONH2)][Phe(4-CONH2)][Sar][Trp(βS-Me,7-OMe)][X1][Nle][4Pal][Pip(5R-OH)]W[NMeE]N))	0.1	0.14	> 1000	
CCCC[C@@H]1NC(=O)CSC[C@@H](C(N)=O)NC(=O)[C@](C)(Cc2c[nH]c3ccccc23)NC(=O)CN(C)C(=O)[C@H](Cc2ccc(O)cc2)NC(=O)[C@H](Cc2ccc(CC(=O)O)cc2)NC(=O)[C@](C)(CO)NC(=O)[C@H](Cc2c[nH]c3c(Cl)cccc23)NC(=O)[C@H](Cc2ccncc2)NC(=O)[C@H](CC(N)=O)NC(=O)[C@H](CCC(=O)O)N(C)C(=O)[C@H](Cc2c[nH]c3ncccc23)NC(=O)[C@H](CO)NC(=O)[C@H](Cc2ccc(CN)cc2)NC1=O [SEQ ID NO. 224] ({CH2CO}-[Nle][Phe(4-CH2NH2)]S[Trp(7-aza)][NMeE]N[4Pal][Trp(7-Cl)][αMeS][Phe(4-CH2COOH)]Y[Sar][αMeW]C-NH2; thioether N-14)		0.4	> 1000	1.7
CCCC[C@@H]1NC(=O)[C@H]2CC[C@H](CC2)NC(=O)[C@H]([C@@H](C)c2c[nH]c3c(OC)cccc23)NC(=O)CN(C)C(=O)[C@H](Cc2ccc(O)cc2)NC(=O)[C@H](Cc2ccc(C(=O)O)cc2)NC(=O)[C@](C)(CO)NC(=O)[C@H](Cc2c[nH]c3c(Cl)cccc23)NC(=O)[C@H](Cc2ccncc2)NC(=O)[C@H](CC(N)=O)NC(=O)[C@H](CCC(=O)O)N(C)C(=O)[C@H](Cc2c[nH]c3ccccc23)NC(=O)[C@H](CO)NC(=O)[C@H](Cc2ccc(CN)cc2)NC1=O [SEQ ID NO. 244] (cyclo([4Pal][Trp(7-Cl)][αMeS][Phe(4-COOH)]Y[Sar][Trp(βS-Me,7-OMe)][Achc(cis-1,4)][Nle][Phe(4-CH2NH2)]SW[NMeE]N))	0.96	0.09	> 1000	0.49
COc1cccc2c([C@H](C)[C@@H]3NC(=O)CN(C)C(=O)[C@H](Cc4cccc(C(N)=O)c4)NC(=O)[C@H](Cc4ccc(C(N)=O)cc4)NC(=O)[C@](C)(CO)NC(=O)[C@H](Cc4c[nH]c5c(Cl)cccc45)NC(=O)[C@H](Cc4ccncc4)NC(=O)[C@H](CC(N)=O)NC(=O)[C@H]4C[C@H](O)CN4C(=O)[C@H](Cc4c[nH]c5ccccc45)NC(=O)[C@@H]4CC[C@@H](O)CN4C(=O)[C@H](Cc4ccncc4)NC(=O)[C@H](CCNC(=O)c4ccon4)NC(=O)[C@@H]4CC[C@@H](C4)NC3=O)c[nH]c12 [SEQ ID NO. 169] (cyclo([4Pal][Trp(7-Cl)][αMeS][Phe(4-CONH2)][Phe(3-CONH2)][Sar][Trp(βS-Me,7-OMe)][X1][Dab](Isoxazole(3-carbonyl))[4Pal][Pip(5R-OH)]W[dHyp]N))	0.16	0.08	> 1000	
CCCC[C@@H]1NC(=O)[C@@H]2CC[C@@H](C2)NC(=O)[C@H]([C@@H](C)c2c[nH]c3c(OC)cccc23)NC(=O)CN(C)C(=O)[C@H](Cc2ccc(C(=O)O)cc2)NC(=O)[C@H](Cc2ccc(C(N)=O)cc2)NC(=O)[C@](C)(CO)NC(=O)[C@H](Cc2c[nH]c3c(C#N)cccc23)NC(=O)[C@H](Cc2ccc(C(=O)O)cc2)NC(=O)[C@H](CC(N)=O)NC(=O)CN(CCC(N)=O)C(=O)[C@H](Cc2c[nH]c3ccccc23)NC(=O)[C@@H]2CC[C@@H](O)CN2C(=O)[C@H](Cc2ccncc2)NC1=O [SEQ ID NO. 130] (cyclo([4Pal][Pip(5R-OH)]W[Gly(Nα-CH2CH2CONH2)]N[Phe(4-COOH)][Trp(7-CN)][αMeS][Phe(4-CONH2)][Phe(4-COOH)][Sar][Trp(βS-Me,7-OMe)][X1][Nle]))	0.01	0.06	> 1000	
